Experimental data as given in patent US10058487B2, “Polymerizable dental material” (Muhlbauer Technology GmbH, priority 2014, dated 2018).
≈ marks a conversion by molar mass, not a printed value.

Experiment: Determination of the water solubility by UV/visible spectroscopy
Format: physicochemical
Conditions: 23 °C, thermodynamic from solid; saturated solution in deionized water, 23±2° C.; read-out: Solubility
Method: The water solubility was determined in deionized water by UV/visible spectroscopy. The spectra were recorded with a UV/visible spectrometer (Evolution 600, Thermo Scientific) between 200-900 nm. The measurement was carried out in quartz cells (path length 10 mm). The pure solvent deionized water was used for the background spectrum. The background spectrum was subtracted from the spectra of the coinitiators.
Dilute solutions of the different coinitiators with known concentrations were prepared in deionized water. The absorption of the different coinitiators was measured in the absorption maximum (between 290-310 nm) and a linear relationship between the known concentrations and the measured absorptions was determined.
Saturated aqueous solutions of the coinitiators were diluted up to the point that the measured absorption falls in the linear region found above. The concentrations of the coinitiators in the saturated aqueous solutions are determined via the Lambert-Beer law.

Row | Compound | solubility [µg/mL]
1 | CCCCOCCOC(=O)c1ccc(N(C)C)cc1 [2-(n-Butoxy)ethyl 4-dimethylaminobenzoate] | 35 (≈ 132 µM)
2 | COCCNC(=O)c1ccc(N(C)C)cc1 [4-Dimethylamino-N-(2-methoxyethyl)benzamide] | 2670 (≈ 12000 µM)
3 | CCCNC(=O)c1ccc(N(C)C)cc1 [4-Dimethylamino-N-propylbenzamide] | 680 (≈ 3300 µM)
4 | CN(C)c1ccc(C(N)=O)cc1 [4-Dimethylaminobenzamide] | 427 (≈ 2600 µM)
5 | CN(C)c1ccc(C#N)cc1 [4-Dimethylaminobenzonitrile] | 278 (≈ 1900 µM)
6 | CCCCC(CC)COC(=O)c1ccc(N(C)C)cc1 (centres unmarked) [EHA, 2-Ethylhexyl 4-dimethylaminobenzoate] | 26 (≈ 93.7 µM)
7 | CCOC(=O)c1ccc(N(C)C)cc1 [Ethyl 4-dimethylaminobenzoate] | 36 (≈ 186 µM)

Same assay, conditions: saturated solution in deionized water, 23±2° C.

Row | Compound | solubility [µg/mL]
8 | Polyethylene glycol monomethyl ether 4-dimethylaminobenzoate [PEGA] | > 766000
